Counter-ions that a name gives are not always drawn. Like-named read-outs stand apart in the source and are kept apart here.
What was measured:
[1] = Plasma and tumor compound concentrations in CT26 tumor-bearing mice (LC-MS/MS); format: in vivo, BALB/c mice; details: 0.375 mg/kg single i.v.; for concentration at 3.5 h / concentration at 8 h / concentration at 12 h / concentration at 24 h: BALB/c, mouse, intravenous; for concentration at 3.5 h: 3.5 h (Table 4); for concentration at 8 h: 8 h (Table 4); for concentration at 12 h: 12 h (Table 4)
Method: (§1) Pharmacokinetic and Pharmacodynamic Profiling and Estimation of Immune Cell Infiltration in Tumors Following Treatment with Compounds 2, 6, 8, 12 and 14
(§2) Serum and tumor cytokine levels and corresponding compound concentrations in mouse plasma were determined following single-dose intravenous administration in CT26 (murine colorectal carcinoma) tumor-bearing mice. Briefly, naïve BALB/c mice in the age group of 6-8 weeks were inoculated with 0.1 million CT-26 cells/animal in phosphate buffered saline (PBS), subcutaneously. […] Blood and tumor samples were harvested at various time points up to 24 h post-dose. Tumor samples were homogenized and prepared for cytokine estimation (ELISA) and compound concentration were determined by LC-MS/MS. Serum aliquots and tumor samples were snap-frozen and stored at −80° C. till further analysis. Serum and tumor samples were evaluated for Interferon beta (IFNβ), interleukin-6 (IL-6) and tumor necrosis factor alpha (TNFα) by enzyme linked immunosorbent assay (ELISA) using kits from R & D systems (Quantikine mouse IL-6 and TNFα kits) and PBL biosciences (Verikine mouse IFNβ kit).
Bioanalysis of plasma and tumor samples: Plasma and tumor concentrations of test compounds were determined by LC-MS/MS method. Tumor samples were homogenized utilizing a bead-based homogenizer. Plasma samples and tumor homogenates were extracted using protein precipitation method with organic solution containing respective internal standards. Plasma and tumor concentrations were determined against respective calibration curve. Table 3 indicates the concentration of Compound 2 in plasma and tumor at different administered doses. Table 4 indicates the concentration of Compounds 6, 8, 12, and 14 in plasma and tumor at different administered doses. Table 5 indicates cytokine levels for Compound 2 in serum and tumor at different doses. Table 6 indicates cytokine levels for Compounds 6, 8, 12 and 14 in serum and tumor at 0.375 mpk.

[2] = tested on: Interferon beta (IFNβ), interleukin-6 (IL-6) and tumor necrosis factor alpha (TNFα); test: Serum and tumor cytokine levels in CT26 tumor-bearing mice (ELISA); format: in vivo, BALB/c mice; details: 0.375 mg/kg single i.v.
Method: as §1, §2
Cytokine analysis from mouse serum samples: For IL-6 and TNFα estimation, 50 μL of test samples or internal standard or control were applied to wells in duplicates and incubated for 2 h at room temperature, followed by aspiration and washing four times with 400 μL of wash buffer. 100 μL of mouse IL-6 or TNFα conjugate solution was added and incubated further for 2 h at room temperature and followed later by 4 wash cycles. 100 μL of substrate solution was added to each well with addition of stop solution after 30 min. Optical density was measured at 450 nm averaged and was used for further calculations following subtraction of respective blank controls. Cytokine concentrations were determined by interpolating the optical density of samples into the reference standard curve utilizing four parameter logistic (4-PL) curve-fit. Cytokine concentrations were normalized with their respective dilution factors and represented in pg/mL. For IFNβ estimation, 100 μL test sample or internal standard or controls were applied to the wells in duplicates and incubated for 1 h at room temperature followed by three washes and addition of the anti-mouse IFNβ antibody solution with further 1 h incubation. This was followed by addition of horseradish peroxidase (HRP) solution and three washes, later addition of TMB substrate and reading the optical density at 450 nm. Optical densities were blank-subtracted and interpolated to the reference standard utilizing the four parameter logistic (4-PL) curve-fit. Cytokine concentrations were normalized with their respective dilution factors and represented in pg/mL. Tables 4 and 5 indicate cytokine levels for compounds 2, 6, 8, 12, and 14 in serum and tumor at different administered doses.
Cytokine analysis from tumor samples: Tumor samples were homogenized in a bead-based homogenizer and lysates were prepared with buffer supplemented with 1% Triton X-100 and protease inhibitors. Cytokine levels were estimated by ELISA and expressed as pg/g tumor.

[3] = tumor, 24 h (Table 4), read-out: Tumor Conc.

SMILES | Plasma Conc. ([1]; 24 h (Table 4)) | Tumor Conc. ([1]; 24 h (Table 4)) | concentration at 3.5 h ([1]; plasma, read-out: Plasma Conc.) [nM] | concentration at 8 h ([1]; plasma, read-out: Plasma Conc.) [nM] | concentration at 12 h ([1]; plasma, read-out: Plasma Conc.) [nM] | concentration at 3.5 h ([1]; tumor, read-out: Tumor Conc.) [nM] | concentration at 8 h ([1]; tumor, read-out: Tumor Conc.) [nM] | concentration at 12 h ([1]; tumor, read-out: Tumor Conc.) [nM] | Serum IFNβ ([2]; 3.5 h (Table 6)) [pg/mL] | Tumor IFNβ ([2]; 3.5 h (Table 6)) [pg/g tumor] | Serum IFNβ ([2]; 8 h (Table 6)) [pg/mL] | Tumor IFNβ ([2]; 8 h (Table 6)) [pg/g tumor] | Serum IFNβ ([2]; 12 h (Table 6)) [pg/mL] | Tumor IFNβ ([2]; 12 h (Table 6)) [pg/g tumor] | Serum IFNβ ([2]; 24 h (Table 6)) | Tumor IFNβ ([2]; 24 h (Table 6)) [pg/g tumor] | concentration at 24 h ([1]; plasma, 24 h (Table 4), read-out: Plasma Conc.) [nM] | concentration at 24 h [1, 3] [nM]
CCn1nc(C)cc1C(=O)Nc1nc2cc(C(N)=O)cc3c2n1C/C=C/Cn1c(NC(=O)c2cc(C)nn2CC)nc2cc(C(=O)NCCCn4cc(C(=O)O)cn4)cc(c21)OCCCO3 [Compound 8, (E)-1-(3-(12-carbamoyl-1,15-bis(1-ethyl-3-methyl-1H-pyrazole-5-carboxamido)-8,9,16,19-tetrahydro-7H-6,10-dioxa-2,14,15a,19a-tetraazacyclopentadeca[3,2,1-cd:8,9,10-c′d′]diindene-4-carboxamido)propyl)-1H-pyrazole-4-carboxylic acid sodium salt] | BLQ | BLQ | 40 ± 10 | 20 ± 10 | 20 ± 10 | 90 ± 10 | 60 ± 10 | 60 | 20553 ± 3011.24 | 7975 ± 1164.2 | 307 ± 64.6 | 1182 ± 321.2 | 43 ± 33.5 | 284 ± 84.2 | BLQ | 197 ± 84.7 | – | –
CCn1nc(C)cc1C(=O)Nc1nc2cc(C(N)=O)cc3c2n1C/C=C/Cn1c(NC(=O)c2cc(C)nn2CC)nc2cc(C(=O)N[C@H]4CC[C@H](c5nnn[nH]5)CC4)cc(c21)OC[C@@H](N1C2CCC1COC2)CO3 [Compound 12, (8S,E)-N4-((1R,4S)-4-(1H-tetrazol-5-yl)cyclohexyl)-8-(3-oxa-8-azabicyclo[3.2.1]octan-8-yl)-1,15-bis(1-ethyl-3-methyl-1H-pyrazole-5-carboxamido)-8,9,16,19-tetrahydro-7H-6,10-dioxa-2,14,15a,19a-tetraazacyclopentadeca[3,2,1-cd:8,9,10-c′d′]diindene-4,12-dicarboxamide sodium salt] | – | – | 440 ± 50 | 180 ± 50 | 90 ± 20 | 360 ± 130 | 190 ± 80 | 300 ± 120 | 4248 ± 706 | 6190 ± 687.0 | 568 ± 48.6 | 1144 ± 128.9 | 16 ± 15.7 | 789 ± 378.2 | BLQ | 94 ± 48.3 | 20 | 130 ± 40
CCn1nc(C)cc1C(=O)Nc1nc2cc(C(N)=O)cc3c2n1C/C=C/Cn1c(NC(=O)c2cc(C)nn2CC)nc2cc(C(=O)N[C@H]4CC[C@H](C(=O)O)CC4)cc(c21)OC[C@@H](N1C2CCC1COC2)CO3 [Compound 14, (1S,4R)-4-((8S,E)-8-(3-oxa-8-azabicyclo[3.2.1]octan-8-yl)-12-carbamoyl-1,15-bis(1-ethyl-3-methyl-1H-pyrazole-5-carboxamido)-8,9,16,19-tetrahydro-7H-6,10-dioxa-2,14,15a,19a-tetraazacyclopentadeca[3,2,1-cd:8,9,10-c′d′]diindene-4-carboxamido)cyclohexane-1-carboxylic acid sodium salt] | BLQ | – | 450 ± 70 | 90 ± 10 | 70 ± 60 | 170 ± 20 | 130 ± 20 | 160 ± 60 | 768 ± 330.8 | 2433 ± 653.8 | 415 ± 8.7 | 2137 ± 261.8 | 5 ± 5 | 752 ± 126.6 | BLQ | 380 ± 239 | – | 180 ± 60
